Key:
[1] = molecular target: T1, Bromodomain-containing protein 4 (Homo sapiens, UniProt O60885); experiment: Binding affinity to human BRD4 BD1 assessed as inhibition constant incubated for 1 hr by competitive binding assay
[2] = molecular target: T1, Bromodomain-containing protein 4; experiment: Binding affinity to human BRD4 BD2 assessed as inhibition constant incubated for 1 hr by competitive binding assay
Homo sapiens [3] = species: Homo sapiens; experiment: Selectivity ratio of Ki for human BRD4 BD2 to Ki for BRD4 BD1
[4] = molecular target: T1, Bromodomain-containing protein 4; experiment: Inhibition of his 6 tagged BRD4 D1 (unknown origin) expressed in Escherichia coli BL21 (DE3) by fluorescence anisotropy assay
Homo sapiens [5] = species: Homo sapiens; experiment: Selectivity ratio of IC50 for BRD4 BD2 (unknown origin) to IC50 for BRD4 BD1 (unknown origin)
[6] = molecular target: Mitogen-activated protein kinase 14 (Homo sapiens, UniProt Q16539)
Description: Binding affinity to p38 alpha (unknown origin) assessed as dissociation constant by DiscoverX kinomescan method

[7] = molecular target: T2, Bromodomain-containing protein 2 (Homo sapiens, UniProt P25440); experiment: Binding affinity to BDR2-BD1 (unknown origin) by TR-FRET assay
[8] = molecular target: T2, Bromodomain-containing protein 2; experiment: Binding affinity to BDR2- BD2 (unknown origin) by TR-FRET assay
Homo sapiens [9] = species: Homo sapiens; experiment: Selectivity ratio of Kd for BRD2 BD1 (unknown origin) to Kd for BRD2 BD2 (unknown origin)
Homo sapiens [10] = species: Homo sapiens; experiment: Selectivity ratio of Kd for BRD4 BD1 (unknown origin) to Kd for BRD4 BD2 (unknown origin)
[11] = Inhibition of BRD BD1 (unknown origin) by alpha screen assay; set-up: species or system Homo sapiens
[12] = Inhibition of BRD BD2 (unknown origin) by alpha screen assay; set-up: species or system Homo sapiens
Homo sapiens [13] = species: Homo sapiens; experiment: Selectivity ratio of IC50 for BRD BD1 (unknown origin) to IC50 for BRD BD2 (unknown origin)

T2 sequence (P25440 whole entry): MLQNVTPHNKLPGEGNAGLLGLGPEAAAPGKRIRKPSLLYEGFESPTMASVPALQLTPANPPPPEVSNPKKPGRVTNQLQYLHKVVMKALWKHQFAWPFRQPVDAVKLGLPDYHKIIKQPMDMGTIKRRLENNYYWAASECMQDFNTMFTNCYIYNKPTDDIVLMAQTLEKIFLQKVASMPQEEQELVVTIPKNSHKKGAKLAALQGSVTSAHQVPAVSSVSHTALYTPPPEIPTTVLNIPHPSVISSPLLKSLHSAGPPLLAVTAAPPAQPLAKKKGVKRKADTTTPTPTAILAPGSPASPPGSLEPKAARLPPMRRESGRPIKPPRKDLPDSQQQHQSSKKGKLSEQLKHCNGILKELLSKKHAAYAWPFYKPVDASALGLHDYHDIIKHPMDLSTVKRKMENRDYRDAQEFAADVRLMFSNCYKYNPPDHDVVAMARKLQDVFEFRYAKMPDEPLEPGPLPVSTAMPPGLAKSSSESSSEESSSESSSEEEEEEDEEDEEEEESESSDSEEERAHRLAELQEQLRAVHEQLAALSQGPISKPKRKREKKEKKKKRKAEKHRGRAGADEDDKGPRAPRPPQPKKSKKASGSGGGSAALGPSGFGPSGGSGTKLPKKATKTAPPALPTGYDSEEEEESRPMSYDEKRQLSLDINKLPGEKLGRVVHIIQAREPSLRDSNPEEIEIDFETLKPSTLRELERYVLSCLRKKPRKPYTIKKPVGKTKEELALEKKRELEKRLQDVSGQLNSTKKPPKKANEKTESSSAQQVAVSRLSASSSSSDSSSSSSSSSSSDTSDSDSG
Sequence of Mitogen-activated protein kinase 14 (Q16539 whole entry): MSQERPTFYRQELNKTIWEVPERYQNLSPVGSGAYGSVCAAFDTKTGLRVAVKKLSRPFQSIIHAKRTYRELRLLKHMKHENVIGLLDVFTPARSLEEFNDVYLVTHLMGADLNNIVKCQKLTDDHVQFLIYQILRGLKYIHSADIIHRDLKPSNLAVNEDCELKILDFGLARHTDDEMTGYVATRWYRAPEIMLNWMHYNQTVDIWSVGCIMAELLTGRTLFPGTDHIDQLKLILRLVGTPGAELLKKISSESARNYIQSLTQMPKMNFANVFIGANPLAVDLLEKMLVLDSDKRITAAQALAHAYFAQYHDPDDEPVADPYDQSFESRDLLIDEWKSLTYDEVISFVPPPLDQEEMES

**Q.** With `COc1ccc(NC(=O)c2ccc(NC3=C(C)C(=O)CC3)c(Cl)c2)cc1` as the compound, how does the Ki [1] read?
**A.** 77 nM

**Q.** What about the Ki [2] of the same compound?
**A.** 718 nM

**Q.** What about the Ratio Ki (Homo sapiens [3]) of the same compound?
**A.** 9

**Q.** Which IC50 [4] does the source give for `Cc1cc(C)cc(Oc2nccc(-c3c(-c4ccc(C(F)(F)F)cc4)ncn3C3CCN(CCN)CC3)n2)c1` here?
**A.** 130 nM

**Q.** And the Ratio IC50 (Homo sapiens [5])?
**A.** 9

**Q.** What about the Kd [6] of the same compound?
**A.** 1900 nM

**Q.** For `COC(=O)c1ccc(N[C@@H]2C[C@H](C)N(C(C)=O)c3ccc(-c4cccc(NC(C)=O)c4)cc32)cc1`, which Kd [7] is on record?
**A.** 931 nM

**Q.** And the Kd [8]?
**A.** 14 nM

**Q.** What about the Ratio (Homo sapiens [9]) of the same compound?
**A.** 67

**Q.** What does the source list for `CC(=O)N1c2ccc(-c3cc[nH]n3)cc2[C@H](Nc2ccc(C#N)cc2)C[C@@H]1C`?
**A.** Kd [7]: 490 nM; Kd [8]: 6 nM; Ratio (Homo sapiens [9]): 80; Ratio (Homo sapiens [10]): 152

**Q.** With `COc1cc(OC)c2c(=O)[nH]c(-c3cc(C)c(OCCN4CCCC4)c(C)c3)nc2c1` as the compound, how does the IC50 [11] read?
**A.** 1160 nM

**Q.** And the IC50 [12]?
**A.** 20 nM

**Q.** What about the Ratio IC50 (Homo sapiens [13]) of the same compound?
**A.** 40
